Test results taken from patent US20200255478A1, “NOVEL COMPOUNDS ACTIVATING THE NRF2 PATHWAY” (Almirall, S.A., priority 2017, published 2020).
Where two headings read alike, the source gives them in different places. Starred links: 1 amine or outer side, 2 acyl side, 3 side chain; linkers in the order of their positions; H or OH if unused. Positions of bridges follow the written chain, without caps; N, C: chain ends. Non-standard residues stand in square brackets, D forms with d. Residues, ends and D or L forms follow the SMILES beside them. *: point of attachment. Trp(2-yl) = O=C([C@H](Cc1c([*:3])[nH]c2ccccc12)N[*:1])[*:2]; X1 = O=C([C@@H]1C[C@H](N[*:3])CN1[*:1])[*:2]; X3 = O=C([C@H](Cc1ccccc1[*:3])N[*:1])[*:2]; mXylylene = c1cc(C[*:1])cc(C[*:2])c1; oXylylene = c1ccc(C[*:2])c(C[*:1])c1; Stearoyl = CCCCCCCCCCCCCCCCCC(=O)*; βAla = NCCC(=O)O

Target: Keap1-Maltose Binding Protein (MBP tag) (Homo sapiens, UniProt Q14145)
Sequence (Q14145 whole entry): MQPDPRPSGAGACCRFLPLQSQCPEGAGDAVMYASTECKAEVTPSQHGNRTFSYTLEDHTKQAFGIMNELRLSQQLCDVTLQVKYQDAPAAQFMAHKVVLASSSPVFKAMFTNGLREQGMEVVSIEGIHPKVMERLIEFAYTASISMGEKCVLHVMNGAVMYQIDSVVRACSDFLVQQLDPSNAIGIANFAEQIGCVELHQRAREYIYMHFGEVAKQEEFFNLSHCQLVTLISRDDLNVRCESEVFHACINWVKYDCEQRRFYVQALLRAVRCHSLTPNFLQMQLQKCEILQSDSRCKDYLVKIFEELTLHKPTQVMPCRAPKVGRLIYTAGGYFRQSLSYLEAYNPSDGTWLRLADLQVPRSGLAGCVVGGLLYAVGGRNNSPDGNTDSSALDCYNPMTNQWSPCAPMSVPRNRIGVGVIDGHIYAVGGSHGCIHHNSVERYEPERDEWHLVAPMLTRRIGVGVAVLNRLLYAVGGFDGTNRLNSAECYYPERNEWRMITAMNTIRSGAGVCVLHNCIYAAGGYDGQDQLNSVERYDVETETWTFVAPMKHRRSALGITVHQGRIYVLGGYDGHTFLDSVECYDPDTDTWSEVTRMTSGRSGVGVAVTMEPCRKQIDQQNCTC
Test: Nrf2-Keap1 HTRF (TR-FRET) binding assay: displacement of biotinylated ETGE peptide from Keap1-MBP
[1] = HTRF (TR-FRET), displacement of ETGE-biotin from Keap1-MBP, values banded into grades, read-out: Binding (IC50) ETGE-Keap1

Row | Structure (SMILES) | IC50 [1] [nM] | IC50 [nM]
1 | CC(C)C[C@H](NC(=O)[C@@H]1CSCc2ccccc2CSC[C@H](NC(=O)[C@H](CCC(N)=O)NC(=O)[C@@H](N)CC(C)C)C(=O)N[C@@H](CC(=O)O)C(=O)N[C@@H](Cc2ccc(F)cc2)C(=O)N[C@@H](CCC(=O)O)C(=O)N[C@@H]([C@@H](C)O)C(=O)NCC(=O)N[C@@H](CCC(=O)O)C(=O)N1)C(=O)N1CCC[C@H]1C(=O)NCCC(=O)N[C@@H](CCCNC(=N)N)C(=O)N[C@@H](CCCCN)C(=O)N[C@@H](CCCCN)C(=O)N[C@@H](CCCNC(=N)N)C(=O)N[C@@H](CCCNC(=N)N)C(=O)N[C@@H](CCC(N)=O)C(=O)N[C@@H](CCCNC(=N)N)C(=O)N[C@@H](CCCNC(=N)N)C(=O)N[C@@H](CCCNC(=N)N)C(N)=O [Example 71] | 1 to 100 | 
2 | CC(C)C[C@H](NC(=O)[C@@H]1CSc2[nH]c3ccccc3c2C[C@H](NC(=O)[C@H](CCC(N)=O)NC(=O)[C@@H](N)CC(C)C)C(=O)N[C@@H](CC(=O)O)C(=O)N[C@@H](CCC(=O)O)C(=O)N[C@@H](CCC(=O)O)C(=O)N[C@@H]([C@@H](C)O)C(=O)NCC(=O)N[C@@H](CCC(=O)O)C(=O)N1)C(=O)N1CCC[C@H]1C(=O)NCCC(=O)N[C@@H](CCCNC(=N)N)C(=O)N[C@@H](CCCCN)C(=O)N[C@@H](CCCCN)C(=O)N[C@@H](CCCNC(=N)N)C(=O)N[C@@H](CCCNC(=N)N)C(=O)N[C@@H](CCC(N)=O)C(=O)N[C@@H](CCCNC(=N)N)C(=O)N[C@@H](CCCNC(=N)N)C(=O)N[C@@H](CCCNC(=N)N)C(N)=O [Example 8] | 1 to 100 | 
3 | CCCCCCCCCCCCCCCCCC(=O)N[C@H]1CCCCNC(=O)[C@H]2CCCN2C(=O)[C@H](CC(C)C)NC(=O)[C@@H]2CSCc3ccccc3CSC[C@H](NC(=O)[C@H](CCC(N)=O)NC1=O)C(=O)N[C@@H](CC(=O)O)C(=O)N1CCC[C@H]1C(=O)N[C@@H](CCC(=O)O)C(=O)N[C@@H]([C@@H](C)O)C(=O)NCC(=O)N[C@@H](CCC(=O)O)C(=O)N2 [Example 92, {[Stearyl-Lys(&^1)-Gln-Cys(&^2)-Asp-Pro-Glu-Thr-Gly-Glu-Cys(&^3)-Leu-D-Pro&^1][&^2(1,2-phenylenediyl)dimethylene&^3]}] | < 1 | 
4 | CCCCCCCCCCCCCCCCCC(=O)N[C@H]1C[C@H]2C(=O)N[C@@H](CCC(N)=O)C(=O)N[C@H]3CSCc4ccccc4CSC[C@H](NC(=O)[C@H](CCC(=O)O)NC(=O)CNC(=O)[C@H]([C@@H](C)O)NC(=O)[C@H](CCC(=O)O)NC(=O)[C@@H]4CSCN4C(=O)[C@H](CC(=O)O)NC3=O)C(=O)N[C@@H](CC(C)C)C(=O)N3CCC[C@@H]3C(=O)N2C1 [Example 78, {[&^1Pro((4S)-NH-Stearyl)-Gln-Cys(&^2)-Asp-Thz-Glu-Thr-Gly-Glu-Cys(&^3)-Leu-D-Pro&^1][&^2(1,2-phenylenediyl)dimethylene&^3]}] | < 1 | 
5 | CC(C)C[C@@H]1NC(=O)[C@@H]2CCCN2C(=O)[C@H](CC(C)C)NC(=O)[C@@H]2CSCc3cccc(c3)CSC[C@H](NC(=O)[C@H](CCC(N)=O)NC1=O)C(=O)N[C@@H](CC(=O)O)C(=O)N[C@@H](C)C(=O)N[C@@H](CCC(=O)O)C(=O)N[C@@H]([C@@H](C)O)C(=O)NCC(=O)N[C@@H](CCC(=O)O)C(=O)N2 [Example 17] (cyclo(AETGECLPLQCD); linker 6-11 via mXylylene) |  | 1 to 100
6 | CC(C)C[C@H](NC(=O)[C@@H]1CSCc2cccc(c2)CSC[C@H](NC(=O)[C@H](CCC(N)=O)NC(=O)[C@@H](N)CC(C)C)C(=O)N[C@@H](CC(=O)O)C(=O)N[C@@H](C)C(=O)N[C@@H](CCC(=O)O)C(=O)N[C@@H]([C@@H](C)O)C(=O)NCC(=O)N[C@@H](CCC(=O)O)C(=O)N1)C(=O)N1CCC[C@H]1C(=O)O [Example 14, {[H-Leu-Gln-Cys(&^1)-Asp-Ala-Glu-Thr-Gly-Glu-Cys(&^2)-Leu-Pro-OH][&^1(1,3-phenylenediyl)dimethylene&^2]}] (H-LQCDAETGECLP-OH; linker 3-10 via mXylylene) | < 1 | 
7 | CCCCCCCCCCCCCCCCCC(=O)NCCC(=O)N[C@H]1CSCc2ccccc2CSC[C@@H](C(N)=O)NC(=O)[C@H](CCC(=O)O)NC(=O)CNC(=O)[C@H]([C@@H](C)O)NC(=O)[C@H](CCC(=O)O)NC(=O)[C@H](C)NC(=O)[C@H](CC(=O)O)NC1=O [Example 28, {[Stearyl-βAla-Cys(&^1)-Asp-Ala-Glu-Thr-Gly-Glu-Cys(&^2)-NH2][&^1(1,2-phenylenediyl)dimethylene&^2]}] | 1 to 100 | 
8 | Cc1cc(C)c2c(C)c1CSC[C@@H](C(=O)N[C@@H](CC(C)C)C(=O)N1CCC[C@H]1C(=O)NCCC(=O)N[C@@H](CCCNC(=N)N)C(=O)N[C@@H](CCCCN)C(=O)N[C@@H](CCCCN)C(=O)N[C@@H](CCCNC(=N)N)C(=O)N[C@@H](CCCNC(=N)N)C(=O)N[C@@H](CCC(N)=O)C(=O)N[C@@H](CCCNC(=N)N)C(=O)N[C@@H](CCCNC(=N)N)C(=O)N[C@@H](CCCNC(=N)N)C(N)=O)NC(=O)[C@H](CCC(=O)O)NC(=O)CNC(=O)[C@H]([C@@H](C)O)NC(=O)[C@H](CCC(=O)O)NC(=O)[C@@H]1CCCN1C(=O)[C@H](CC(=O)O)NC(=O)[C@@H](NC(=O)[C@H](CCC(N)=O)NC(=O)[C@@H](N)CC(C)C)CSC2 [Example 67] | 1 to 100 | 
9 | CC(=O)N[C@H]1Cc2ccccc2SC[C@@H](C(N)=O)NC(=O)[C@H](CCC(=O)O)NC(=O)CNC(=O)[C@H]([C@@H](C)O)NC(=O)[C@H](CCC(=O)O)NC(=O)[C@H](CCC(=O)O)NC(=O)[C@H](CC(=O)O)NC1=O [Example 23, Acetyl-Phe(o-&^1)-Asp-Glu-Glu-Thr-Gly-Glu-Cys(&^1)-NH2] (Ac-[X3]DEETGEC-NH2; thioether 1-8) | 1 to 100 | 
10 | CCCCCCCCCCCCCCCCCC(=O)N1CCC[C@H]1C(=O)N[C@@H](CCC(N)=O)C(=O)N[C@H]1CSCc2ccccc2CSC[C@@H](C(=O)N[C@@H](CC(C)C)C(=O)N2CCC[C@@H]2C(N)=O)NC(=O)[C@H](CCC(=O)O)NC(=O)CNC(=O)[C@H]([C@@H](C)O)NC(=O)[C@H](CCC(=O)O)NC(=O)[C@@H]2CCCN2C(=O)[C@H](CC(=O)O)NC1=O [Example 76, {[Stearyl-Pro-Gln-Cys(&^1)-Asp-Pro-Glu-Thr-Gly-Glu-Cys(&^2)-Leu-D-Pro-NH2][&^1(1,2-phenylenediyl)dimethylene^2]}] (Stearoyl-PQCDPETGECL[dP]-NH2; linker 3-10 via oXylylene) |  | 1 to 100
11 | CCCCCCCCCCCCCCCCCC(=O)N[C@H]1C[C@H]2C(=O)N[C@@H](CCC(N)=O)C(=O)N[C@H]3CSCc4ccccc4CSC[C@H](NC(=O)[C@H](CCC(=O)O)NC(=O)CNC(=O)[C@H]([C@@H](C)O)NC(=O)[C@H](CCC(=O)O)NC(=O)[C@H](CCCNC(=N)N)NC(=O)[C@H](CC(=O)O)NC3=O)C(=O)N[C@@H](CC(C)C)C(=O)N3CCC[C@@H]3C(=O)N2C1 [Example 70, {[&^1Pro((4S)-NH-Stearyl)-Gln-Cys(&^2)-Asp-Arg-Glu-Thr-Gly-Glu-Cys(&^3)-Leu-D-Pro&^1][&^2(1,2-phenylenediyl)dimethylene&^2]}] (cyclo(CDRETGECL[dP][X1](Stearoyl)Q); linker 1-8 via oXylylene) | < 1 | 
12 | CC(=O)N[C@H]1Cc2c([nH]c3ccccc23)SC[C@@H](C(N)=O)NC(=O)[C@H](CCC(=O)O)NC(=O)CNC(=O)[C@H]([C@@H](C)O)NC(=O)[C@H](CCC(=O)O)NC(=O)[C@H](CCC(=O)O)NC(=O)[C@H](CC(=O)O)NC1=O [Example 7, Acetyl-Trp(indol-2-yl-&^1)-Asp-Glu-Glu-Thr-Gly-Glu-Cys(&^1)-NH2] (Ac-[Trp(2-yl)]DEETGEC-NH2; thioether 1-8) |  | 1 to 100
13 | CCCCCCCCCCCCCCCCCC(=O)NCCC(=O)N[C@@H](CC(C)C)C(=O)N[C@@H](CCC(N)=O)C(=O)N[C@H]1CSCc2cccc(c2)CSC[C@@H](C(=O)N[C@@H](CC(C)C)C(=O)N2CCC[C@H]2C(=O)O)NC(=O)[C@H](CCC(=O)O)NC(=O)CNC(=O)[C@H]([C@@H](C)O)NC(=O)[C@H](CCC(=O)O)NC(=O)[C@H](C)NC(=O)[C@H](CC(=O)O)NC1=O [Example 39, {[Stearyl-βAla-Leu-Gln-Cys(&^1)-Asp-Ala-Glu-Thr-Gly-Glu-Cys(&^2)-Leu-Pro-OH][&^1(1,3-phenylenediyl)dimethylene&^2]}] ({Stearoyl-βAla}-LQCDAETGECLP-OH; linker 3-10 via mXylylene) | 1 to 100 | 
